Measurements reported in patent US8034810B2, “Arylsulfonamido-substituted hydroxamic acid derivatives” (Novartis AG, priority 1999, dated 2011).
Where a name gives a salt, the structure may show the parent alone.

target: T1, MT1-MMP (Homo sapiens, UniProt P50281); test: In vitro inhibition of MT1-MMP, fluorogenic peptide substrate; assay type: biochemical; settings: catalytic domain of human MT1-MMP; substrate 10 μM; 37° C.
T1 construct: made in house
Procedure: The inhibitory activities of compounds of formula I on MT1-MMP, MMP1 (collagenase 1) and MMP2 (gelatinase A) can be determined as follows:
Stock solutions of substrate (MCA-Pro-Leu-Gly-Leu-Dpa-Ala-Arg-NH2, Knight, C. G., Willenbrock, F., Murphy, G., A novel coumarin-labelled peptide for sensitive continuous assays of the matrix metalloproteinases, FEBS lett., 296, 263-266, (1992)), are prepared in 100% DMSO at a concentration 1.0 mM. Stock solutions of inhibitors are prepared in 100% DMSO. The inhibitor is diluted into the assays from a solution in 100% DMSO, and controls substitute an equal volume of DMSO so that the final DMSO concentration from inhibitor and substrate dilutions in all assays is 6.0%. Assays are performed in assay buffer (150 mM NaCl, 10 mM CaCl2, 50 mM Tris-Cl pH7.5, 0.05% Brij-35) containing 6.0% DMSO once the substrate and inhibitor are diluted into it. The substrate concentration used in the assays is 10 μM. The test is carried out at 37° C. The fluorescence changes are monitored using an excitation wavelength of 320 nm and an emission wavelength of […]. The reaction mixture is added in duplicate to appropriate wells of a 96 well microfluor plate. The reaction mixture is preincubated with the inhibitor for 30 min, the reaction is started by the addition of MMP enzyme and the fluorescence intensity is measured for 10 min. A time point that is on a linear part of the curve is chosen to determine the activity. The inhibition results are expressed as the inhibitor concentrations that produced 50% inhibition (IC50) of the activity in the control (non-inhibited) reaction. In this test, the compounds of the formula I and their pharmacologically acceptable salts have an inhibiting concentration IC50 [μmol/litre] of 0.0001 and 0.030, usually of 0.0002 to 0.010, for MMP2 and an inhibiting concentration IC50 [μmol/litre] of 0.0005 and 0.125, usually of 0.001 to 0.05, for MT1-MMP.
Plasmid: The catalytic domain of the cDNA fragment encoding a full length of human MT1-MMP gene [from Prof. Motoharu Seiki, Institute of Medical Science, The University of Tokyo; Sato, H., Takino, T., Okada, Y., Cao, J., Shinagawa, A., Yamamoto, E. and Seiki, M. Nature (London), 370:61-65, 1994)] is amplified by polymerase chain reaction (PCR). […] The resulting PCR product of a 519-bp fragment is subcloned between the NdeI and BamHI unique sites of pET11a (Stratagene). The sequence of catalytic domain of MT1-MMP (CD-MT1-MMP) is verified by the ABI PRIS™ dye terminator cycle sequencing kit with the ABI PRISM™ 377 DNA sequencer (Perkin Elmer).
Expression and Purification: The subcloned CD-MT1-MMP is used to transfect E. coli strain BL21-[DE3] (Hanahan, D. J. Mol. Biol. 1983; 166(4):557-80) and expressed as insoluble inclusion body materials. Transfectants are grown at 37° C. in 50 ml Luria-Bertani (LB) medium in the presence of 50 µg/ml ampicillin to a cell density of OD600=0.6-1.0, and CD-MT1-MMP production is induced with 1 mM isopropyl-1-D-galactopyranoside (IPTG). After treatments with 5 mg/ml lysozyme and 10 μg/ml DNase I, the inclusion bodies are prepared from the harvested cells by using the detergent buffer containing 0.2 M NaCl, 1% w/v deoxycholic acid, and 1% v/v Nonidet P40. The solubilization is achieved by resuspending the inclusion bodies in the solubilization buffer composed of 6 M urea, 100 mM 2-mercaptoethanol, and 20 mM Tris-Cl, pH8.5. The enzyme is purified and renaturated using 10 ml of a Q-Sepharose (Amersham Pharmacia Biotech) column equilibrated with 5 mM CaCl2, 0.02% v/v NaN3, in 20 mM Tris-Cl pH7.5. After washing with three volumes of the same buffer, the bound proteins are eluted with two volumes of a linear gradient of 0.5-1.0 M NaCl. The collected fractions (1 ml each) are dialyzed for 6 h in equilibrated buffer. Superdex G200 column (1×15 cm) (Amersham Pharmacia) is equilibrated in 20 mM Tris-Cl, pH 7.5, 5 mM CaCl2, 0.02% NaN3. The desalted sample is applied to Superdex G200 column and chromatographed at 0.5 ml/min. […]

| Molecule | IC50 [nM] |
| --- | --- |
| 2-[(Cyclopropylmethoxy-benzenesulfonyl)-(4-[1,2,4]triazol-1-yl-benzyl)-amino]-N-hydroxyacetamide-hydrochloride salt [Example 82b] | 0.6 |
| C=CCCOc1ccc(S(=O)(=O)N(CC(=O)NO)Cc2ccc(-n3ccnc3)cc2)cc1 [Example 80, 2-[(4-But-3-enyloxy-benzenesulfonyl)-(4-imidazol-1-yl-benzyl)-amino]-N-hydroxy-acetamide-hydrochloride] | 1.2 |
| O=C(CN(Cc1ccc(-n2cncn2)cc1)S(=O)(=O)c1ccc(OCCC2CC2)cc1)NO [Example 82a] | 1.8 |
| O=C(CN(Cc1ccc(-n2cncn2)cc1)S(=O)(=O)c1ccc(OCc2ccoc2)cc1)NO [Example 82c] | 10.7 |
| C=CCCOc1ccc(S(=O)(=O)N(CC(=O)NO)Cc2ccc(-n3cncn3)cc2)cc1 [Example 79, 2-[(4-but-3-enyloxy-benzenesulfonyl)-(4-[1,2,4]triazol-1-yl-benzyl)-amino]-N-hydroxy-acetamide-hydrochloride salt] | 0.7 |
| COc1ccc(CN(CC(=O)NO)S(=O)(=O)c2ccc(OCCCCl)cc2)cc1 [Example 68, 2-{[4-(3-chloro-propoxy)-benzenesulfonyl]-(4-methoxy-benzyl)amino}-N-hydroxy-acetamide] | 5.2 |
| C=CCCOc1ccc(S(=O)(=O)N(CC(=O)NO)Cc2ccc(N3CCOCC3)cc2)cc1 [Example 81, 2-[(4-But-3-enyloxy-benzenesulfonyl)-(4-morpholin-4-yl-benzyl)-amino]-N-hydroxy-acetamide-hydrochloride] | 4.6 |
| C#CCOc1ccc(S(=O)(=O)N(CC(=O)NO)Cc2ccc(OC)cc2)cc1 [Example 75, [(4-methoxy-benzyl)-[4-prop-2-ynyloxy-benzenesulfonyl]-amino]-N-hydroxy-acetamide] | 1.4 |

The remaining lines, values ahead:

| IC50 [nM] | Molecule |
| --- | --- |
| 0.3 | C=CCCOc1ccc(S(=O)(=O)N(CC(=O)NO)Cc2cccc(F)n2)cc1 [Example 83a, 2-([4-But-3-enyloxy-benzenesulfonyl]-(6-fluoro-pyridine-2-yl)methyl-amino)-N-hydroxyacetamide] |
| 20.4 | C=CCCOc1ccc(S(=O)(=O)N(CC(=O)NO)Cc2ccc(N3CCCC3)cc2)cc1 [Example 84a, 2-[(4-But-3-enyloxy-benzenesulfonyl)-(4-(pyrrolidin-1-yl)-benzyl)-amino]-N-hydroxyacetamide-hydrochloride] |
